# In patent publication US20250250261A1, “NOVEL SUBSTITUTED FLUORINATED VINYL-N-PROPYL-PYRROLIDINE COMPOUNDS, PROCESSES FOR THEIR PREPARATION AND THERAPEUTIC USES THEREOF” (SANOFI, priority 2022, published 2025):
# Biological target: T1, ERα (Homo sapiens, UniProt P03372)
# T1 construct: host or cells: MCF7
# T1 sequence (P03372 1-595): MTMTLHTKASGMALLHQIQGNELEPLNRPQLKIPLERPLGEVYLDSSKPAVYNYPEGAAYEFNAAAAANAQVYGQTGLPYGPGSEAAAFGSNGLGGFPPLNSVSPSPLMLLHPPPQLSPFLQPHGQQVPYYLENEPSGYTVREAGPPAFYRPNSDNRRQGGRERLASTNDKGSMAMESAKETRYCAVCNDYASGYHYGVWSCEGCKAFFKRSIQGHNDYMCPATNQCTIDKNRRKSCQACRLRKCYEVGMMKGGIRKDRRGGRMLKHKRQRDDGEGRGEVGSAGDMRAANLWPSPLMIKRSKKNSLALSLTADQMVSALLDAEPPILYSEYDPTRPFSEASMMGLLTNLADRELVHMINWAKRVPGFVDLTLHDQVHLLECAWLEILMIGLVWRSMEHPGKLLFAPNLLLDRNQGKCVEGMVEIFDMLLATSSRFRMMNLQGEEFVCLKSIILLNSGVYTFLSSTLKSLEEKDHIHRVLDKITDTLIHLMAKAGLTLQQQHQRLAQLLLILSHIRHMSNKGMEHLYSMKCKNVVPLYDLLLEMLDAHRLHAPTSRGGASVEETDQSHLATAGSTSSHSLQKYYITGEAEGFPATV
# Assay: Estrogen receptor degradation activity: breast cancer cell ERα in cell western assay (MCF7 cells)
# Type: cell-based
# Settings: 4 hours, % of ERα levels decrease relative to fulvestrant (0.1 μM) and DMSO
# Method: Test: Estrogen Receptor Degradation Activity
# Said test involves measuring the in vitro degradation activity of the compounds of the Table 1a.
# The measurements of the degradation activities were made using a breast cancer cell ERα in cell western assay as described hereunder.
# MCF7 cells (ATCC) were seeded in 384 wells microplate (collagen coated) at a concentration of 10000 cells/30 μL per well in red phenol free MEM alpha medium (invitrogen) containing 5% charcoal dextran striped FBS. The following day, 9 points serial 1:5 dilution of each compound was added to the cells in 2.5 μL at final concentrations ranging from 0.3-0.0000018 μM (in table 2), or 0.1 μM for fulvestrant (using as positive control). At 4 hours post compound addition the cells were fixed by adding 25 μL of formalin (final concentration 5% formalin containing 0.1% triton) for 10 minutes at room temperature and then washed twice with PBS. Then, 50 μL of LI-COR blocking buffer containing 0.1% Triton was added to plate for 30 minutes at room temperature. LI-COR blocking buffer was removed and cells were incubated overnight at cold room with 50 μL anti-ER rabbit monoclonal antibody (Thermo scientific MA1-39540) diluted at 1:1000 in LI-COR blocking buffer containing 0.1% tween-20. Wells which were treated with blocking buffer but no antibody were used as background control. Wells were washed twice with PBS (0.1% tween-20) and incubated at 37° C. for 60 minutes in LI-COR (0.1% tween-20) containing goat anti-rabbit antibody Alexa 488 (1:1000) and Syto-64 a DNA dye (2 μM final concentration). Cells were then washed 3 times in PBS and scanned in ACUMEN explorer (TTP-Labtech). Integrated intensities in the green fluorescence and red fluorescence were measured to determine the levels of ERα and DNA respectively.
# The degradation activity with respect to estrogen receptors in this test is given by the concentration which degrades 50% of the estrogen receptor (or IC50) in nM.
# The % of ERα levels decrease were determined as follows: % inhibition=100*(1−(sample−fulvestrant:DMSO−fulvestrant)).
row,% Degradation At 0.3 μM,Compound
1,96%,"Cl.O=C(O)c1ccc2c(c1)CCCC(c1ccc(Cl)cc1Cl)=C2c1ccc(/C=C2/CCN(CCCF)C2)cc1 [Compound 1, (Z)-8-(2,4-dichlorophenyl)-9-(4-((1-(3,3-fluoropropyl)pyrrolidin-3-ylidene)methyl)phenyl)-6,7-dihydro-5H-benzo[7]annulene-3-carboxylic acid, hydrochloride]"
2,91%,"O=C(O)c1ccc2c(c1)CCCC(c1ccc(F)cc1Cl)=C2c1ccc(/C=C2/CCN(CCCF)C2)cc1 [Compound 2, (Z)-8-(2-chloro-4-fluorophenyl)-9-(4-((1-(3,3-fluoropropyl)pyrrolidin-3-ylidene)methyl)phenyl)-6,7-dihydro-5H-benzo[7]annulene-3-carboxylic acid]"
3,95%,"Cl.O=C(O)c1ccc2c(c1)OCCC(c1ccc(Cl)cc1Cl)=C2c1ccc(/C=C2/CCN(CCCF)C2)cc1 [Compound 3, (Z)-4-(2,4-dichlorophenyl)-5-(4-((1-(3-fluoropropyl)pyrrolidin-3-ylidene)methyl)phenyl)-2,3-dihydrobenzo[b]oxepine-8-carboxylic acid hydrochloride]"
4,73%,"O=C(O)c1ccc2c(c1)CCCC(c1ccc(Cl)cc1Cl)=C2c1ccc(C=C2CCN(CCC(F)F)C2)cc1 [Compound 4, (Z)-8-(2,4-dichlorophenyl)-9-(4-((1-(3,3-difluoropropyl)pyrrolidin-3-ylidene)methyl)phenyl)-6,7-dihydro-5H-benzo[7]annulene-3-carboxylic acid]"
5,88%,"Cl.O=C(O)c1ccc2c(c1)CCCC(c1ccc(F)cc1F)=C2c1ccc(/C=C2/CCN(CCC(F)F)C2)cc1 [Compound 5, (Z)-8-(2,4-difluorophenyl)-9-(4-((1-(3,3-difluoropropyl)pyrrolidin-3-ylidene)methyl)phenyl)-6,7-dihydro-5H-benzo[7]annulene-3-carboxylic acid hydrochloride]"
6,96%,"Cc1cc(F)ccc1C1=C(c2ccc(/C=C3/CCN(CCCF)C3)cc2)c2ccc(C(=O)O)cc2CCC1 [Compound 6, (Z)-8-(4-fluoro-2-methylphenyl)-9-(4-((1-(3-fluoropropyl)pyrrolidin-3-ylidene)methyl)phenyl)-6,7-dihydro-5H-benzo[7]annulene-3-carboxylic acid]"
7,82%,"FCCCN1CC/C(=C/c2ccc(C3=C(c4ccccc4Cl)CCCc4ccccc43)cc2)C1 [Compound 7, (Z)-3-(4-(8-(2-chlorophenyl)-6,7-dihydro-5H-benzo[7]annulen-9-yl)benzylidene)-1-(3-fluoropropyl)pyrrolidine]"
8,90%,"O=C(O)c1ccc2c(c1)CCCC(c1ccc(F)cc1C(F)(F)F)=C2c1ccc(/C=C2/CCN(CCCF)C2)cc1 [Compound 8, (Z)-8-(4-fluoro-2-(trifluoromethyl)phenyl)-9-(4-((1-(3-fluoropropyl)pyrrolidin-3-ylidene)methyl)phenyl)-6,7-dihydro-5H-benzo[7]annulene-3-carboxylic acid]"
9,93%,"O=C(O)c1ccc2c(c1)CCCC(c1ccc(F)cc1F)=C2c1ccc(/C=C2/CCN(CCCF)C2)cc1 [Compound 9, (Z)-8-(2,4-difluorophenyl)-9-(4-((1-(3,3-fluoropropyl)pyrrolidin-3-ylidene)methyl)phenyl)-6,7-dihydro-5H-benzo[7]annulene-3-carboxylic]"
10,92%,"Cc1c(Cl)cccc1C1=C(c2ccc(/C=C3/CCN(CCCF)C3)cc2)c2ccc(C(=O)O)cc2CCC1 [Compound 10, (Z)-8-(3-chloro-2-methylphenyl)-9-(4-((1-(3-fluoropropyl)pyrrolidin-3-ylidene)methyl)phenyl)-6,7-dihydro-5H-benzo[7]annulene-3-carboxylic acid]"
11,93%,"Cc1cccc(C2=C(c3ccc(/C=C4/CCN(CCCF)C4)cc3)c3ccc(C(=O)O)cc3CCC2)c1C(F)(F)F [Compound 11, (Z)-9-(4-((1-(3-fluoropropyl)pyrrolidin-3-ylidene)methyl)phenyl)-8-(3-methyl-2-(trifluoromethyl)phenyl)-6,7-dihydro-5H-benzo[7]annulene-3-carboxylic acid]"
12,85%,"Cc1cccc(C2=C(c3ccc(/C=C4/CCN(CCC(F)F)C4)cc3)c3ccc(C(=O)O)cc3CCC2)c1C(F)(F)F [Compound 12, (Z)-9-(4-((1-(3,3-difluoropropyl)pyrrolidin-3-ylidene)methyl)phenyl)-8-(3-methyl-2-(trifluoromethyl)phenyl)-6,7-dihydro-5H-benzo[7]annulene-3-carboxylic acid]"
13,86%,"Cc1c(Cl)cccc1C1=C(c2ccc(/C=C3/CCN(CCC(F)F)C3)cc2)c2ccc(C(=O)O)cc2CCC1 [Compound 13, (Z)-8-(3-chloro-2-methylphenyl)-9-(4-((1-(3,3-difluoropropyl)pyrrolidin-3-ylidene)methyl)phenyl)-6,7-dihydro-5H-benzo[7]annulene-3-carboxylic acid]"
14,92%,"Cc1c(C2=C(c3ccc(/C=C4/CCN(CCCF)C4)cc3)c3ccc(C(=O)O)cc3CCC2)cccc1C(F)(F)F [Compound 14, (Z)-9-(4-((1-(3-fluoropropyl)pyrrolidin-3-ylidene)methyl)phenyl)-8-(2-methyl-3-(trifluoromethyl)phenyl)-6,7-dihydro-5H-benzo[7]annulene-3-carboxylic acid]"
15,88%,"Cc1cc(F)ccc1C1=C(c2ccc(/C=C3/CCN(CCC(F)F)C3)cc2)c2ccc(C(=O)O)cc2CCC1 [Compound 15, (Z)-9-(4-((1-(3,3-difluoropropyl)pyrrolidin-3-ylidene)methyl)phenyl)-8-(4-fluoro-2-methylphenyl)-6,7-dihydro-5H-benzo[7]annulene-3-carboxylic acid]"
16,76%,"Cl.Oc1ccc2c(c1)CCCC(c1ccc(Cl)cc1Cl)=C2c1ccc(/C=C2/CCN(CCCF)C2)cc1 [Compound 16, (Z)-8-(2,4-dichlorophenyl)-9-(4-((1-(3-fluoropropyl)pyrrolidin-3-ylidene)methyl)phenyl)-6,7-dihydro-5H-benzo[7]annulen-3-ol hydrochloride]"
17,61%,"Oc1ccc2c(c1)CCCC(c1ccc(Cl)cc1Cl)=C2c1ccc(/C=C2/CCN(CCC(F)F)C2)cc1 [Compound 17, (Z)-8-(2,4-dichlorophenyl)-9-(4-((1-(3-difluoropropyl)pyrrolidin-3-ylidene)methyl)phenyl)-6,7-dihydro-5H-benzo[7]annulen-3-ol]"
18,86%,"O=C(O)c1ccc2c(c1)CCCC(c1ccc(F)cc1C(F)(F)F)=C2c1ccc(/C=C2/CCN(CCC(F)F)C2)cc1 [Compound 18, (Z)-9-(4-((1-(3,3-difluoropropyl)pyrrolidin-3-ylidene)methyl)phenyl)-8-(4-fluoro-2-(trifluoromethyl)phenyl)-6,7-dihydro-5H-benzo[7]annulene-3-carboxylic acid]"
19,87%,"Cc1c(C2=C(c3ccc(/C=C4/CCN(CCC(F)F)C4)cc3)c3ccc(C(=O)O)cc3CCC2)cccc1C(F)(F)F [Compound 19, (Z)-9-(4-((1-(3,3-difluoropropyl)pyrrolidin-3-ylidene)methyl)phenyl)-8-(2-methyl-3-(trifluoromethyl)phenyl)-6,7-dihydro-5H-benzo[7]annulene-3-carboxylic acid]"
20,85%,Cc1cc(F)cc(C)c1C1=C(c2ccc(/C=C3/CCN(CCC(F)F)C3)cc2)c2ccc(C(=O)O)cc2CCC1 [Compound 20]
21,94%,"Cc1cc(F)cc(C)c1C1=C(c2ccc(/C=C3/CCN(CCCF)C3)cc2)c2ccc(C(=O)O)cc2CCC1 [Compound 21, (Z)-8-(4-fluoro-2,6-dimethylphenyl)-9-(4-((1-(3-fluoropropyl)pyrrolidin-3-ylidene)methyl)phenyl)-6,7-dihydro-5H-benzo[7]annulene-3-carboxylic acid]"
